Consider 18 molecules from ChEMBL document CHEMBL1151283, “Bis(bibenzyls) from liverworts inhibit lipopolysaccharide-induced inducible NOS in RAW 264.7 cells: a study of structure-activity relationships and molecular mechanism” (J Nat Prod, 2005).

As a reminder, the IC50 is the point on the concentration scale where inhibition reaches its midpoint.

Each structure is given as a SMILES string. Activity calls are given as the source filed them. The rule behind the calls is not given here. Where only a bound is given, the exact number is not on record here.

The subject of the first assay is RAW264.7. The experiment in a line: Inhibition of LPS-induced nitric oxide production in mouse RAW264.7 cells pretreated 1 hr before LPS challenge after 24 hrs by Griess reagent method. The assay is classed as functional, cell-based. In general terms: Nitrite, measured by Griess reagent, commonly stands in for NO production.
Take `Oc1ccc2c(c1)CCc1ccc(O)c(c1)-c1cc(ccc1O)/C=C\c1cccc(c1)O2` [ISOPLAGIOCHIN A]: the IC50 is greater than 100 µM. On the same count and under the same terms, next, `Oc1ccc2cc1Oc1ccc(cc1)CCc1cccc(c1)Oc1c(O)cccc1CC2` [ISOMARCHANTIN C]: greater than 100 µM. As for `Oc1ccc2c(c1)CCc1ccc(cc1)Oc1cc(ccc1O)CCc1ccc-2c(O)c1` [RICCARDI C], the IC50 is greater than 100 µM.

As to `Oc1ccc2c(c1)/C=C/c1ccc(O)c(c1)Oc1ccc(cc1)CCc1cccc(c1)O2` [PTYCHANTOL A], the 50% inhibitory concentration (IC50) was greater than 100 µM. Same read-out and setting: as for `COc1cc2cc(c1OC)Oc1ccc(cc1)CCc1ccc(OC)c(OC)c1Oc1cccc(c1)CC2` [MARCHANTIN B TETRAMETHYL ETHER], the figure is 42.5 µM; as for `COc1cc2c(cc1O)-c1ccc(O)cc1CCc1cc(O)c(O)c(c1)Oc1ccc(cc1)CC2` [PLAGIOCHIN A], 9.07 µM; as for `Oc1ccc2cc1-c1cc(ccc1O)CCc1c(ccc(O)c1O)Oc1cccc(c1)/C=C\2` [ISOPLAGIOCHIN B], greater than 100 µM.

Regarding `Oc1cccc(CCc2ccc(Oc3cc(CCc4cccc(O)c4)cc(O)c3O)cc2)c1` [PERROTETTIN F], the IC50 was found to be 7.42 µM. On the same count and under the same terms, as for `Oc1cc2cc(c1O)Oc1ccc(cc1)CCc1ccc(O)c(O)c1Oc1cccc(c1)CC2` [MARCHANTIN B], the figure is 4.1 µM; as for `COc1ccc2c(c1)CCc1ccc(cc1)Oc1cc(ccc1O)CCc1ccc-2c(O)c1` [RICCARDIN A], 2.5 µM. The same measure, in the same setting: next, `COc1ccc2cc1Oc1ccc(cc1)CCc1cc(O)ccc1-c1ccc(cc1O)CC2` [RICCARDI F]: 5 µM; `Oc1ccc2cc1Oc1ccc(cc1)CCc1cc(O)c(O)c(c1)Oc1cccc(c1)CC2` [MARCHANTIN H]: 15.3 µM; `Oc1cc2cc(c1O)Oc1ccc(cc1)CCc1cccc(O)c1Oc1cccc(c1)CC2` [MARCHANTIN A]: 1.44 µM. Same read-out and setting: as for `COc1cccc(CCc2ccc(O)c(Oc3ccc(CCc4cccc(O)c4)cc3)c2)c1`, the figure is 49.9 µM.

With `Oc1ccc2c(c1)CCc1ccc(O)c(c1)-c1cc(ccc1O)CCc1ccc-2c(O)c1` [ISOPLAGIOCHIN D], the IC50 worked out at 14.3 µM. On to `COC1Cc2cccc(c2)Oc2c(O)cccc2CCc2ccc(cc2)Oc2cc1cc(O)c2O` (stereo not given) [MARCHANTIN E], for which the IC50 was determined as 62.2 µM. On the same count and under the same terms, next, `Oc1ccc2cc1Oc1cccc(c1)CC(O)c1cc(O)c(O)c(c1)Oc1ccc(cc1)CC2` (stereo not given) [MARCHANTIN D]: 10.2 µM; `COc1cccc2c1Oc1cccc(c1)CCc1cc(OC)c(OC)c(c1)Oc1ccc(cc1)CC2` [MARCHANTIN A TRIMETHYL ETHER]: 42.5 µM.

The next assay has as its system RAW264.7. The experiment in a line: Inhibition of iNOS mRNA expression in mouse RAW264.7 cells […] by RT-PCR analysis. The format is functional, cell-based.
In the case of `Oc1cc2cc(c1O)Oc1ccc(cc1)CCc1cccc(O)c1Oc1cccc(c1)CC2` [MARCHANTIN A], the outcome was inactive.

The next assay deals with RAW264.7. The experiment in a line: Inhibition of LPS-induced iNOS mRNA expression in mouse RAW264.7 cells […] by RT-PCR analysis. The format is functional, cell-based.
Turning to `Oc1cc2cc(c1O)Oc1ccc(cc1)CCc1cccc(O)c1Oc1cccc(c1)CC2` [MARCHANTIN A], the Activity result was “Dose-dependent effect”.
